# In article PMC8836258, “Structural Basis of Redox-Sensing Transcriptional Repressor Rex with Cofactor NAD^+ and Operator DNA” (International Journal of Molecular Sciences, 2022):
# Molecular target: T1, Tma Rex (Thermotoga maritima, UniProt Q9WY16)
# T1 construct: gene rex1; Full-length, residues 1-208 (5-207 modelled); homodimer; P-loop residues 89-94 GAGNIG; crystallised with 22-bp TM0201 operator DNA
# T1 sequence (Q9WY16 1-208): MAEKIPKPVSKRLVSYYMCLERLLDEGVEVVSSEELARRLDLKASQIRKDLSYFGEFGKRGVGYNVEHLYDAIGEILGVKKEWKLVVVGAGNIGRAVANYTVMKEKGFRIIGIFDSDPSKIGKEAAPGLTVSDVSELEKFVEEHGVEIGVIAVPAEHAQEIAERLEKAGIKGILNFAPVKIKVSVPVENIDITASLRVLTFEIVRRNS
# Assay: X-ray crystallography, co-crystal structure at […] A
# Format: binding
# Settings: ternary complex with 22-bp TM0201 operator DNA; 1 mM NAD+ in co-crystallization; pH 6.5, 296 K; one NAD+ per monomer, C-terminal Rossmann domain near dimer interface
smiles,measurement,value
NC(=O)c1ccc[n+]([C@@H]2O[C@H](COP(=O)(O)OP(=O)(O)OC[C@H]3O[C@@H](n4cnc5c(N)ncnc54)[C@H](O)[C@@H]3O)[C@@H](O)[C@H]2O)c1 [NAD^+],"X-ray crystallography, co-crystal structure at 2.40 A",a dimeric Rex protein bound to one molecule of NAD^+ per monomer
